Target: FKBP12 (Homo sapiens, UniProt P62942)
Assay: FKBP12 Rotamase Inhibition Assay
Assay type: biochemical
Conditions: for Ki: 4° C., chymotrypsin-coupled, succinyl-Ala-Leu-Pro-Phe-p-nitroanilide substrate, read-out: Ki (apparent Ki for inhibition of rotamase activity); for inhibition at 10 µM: read-out: Percent Inhibition at 10 μM (rotamase)

FKBP12, sequence (P62942 whole entry, species assumed): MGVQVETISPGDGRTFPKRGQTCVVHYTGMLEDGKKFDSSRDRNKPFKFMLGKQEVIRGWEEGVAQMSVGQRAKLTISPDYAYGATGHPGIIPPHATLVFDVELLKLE

Row | Compound | Ki [nM] | inhibition at 10 µM [%]
1 | COc1cc(C(F)(F)C(=O)N2CCC[C@H]2C(=O)OCCCc2ccccc2)cc(OC)c1OC [Example 1] | 1300 | 97
2 | COc1cc(C(F)(F)C(=O)N2CCCC[C@H]2C(=O)OC(CCc2ccccc2)c2ccccc2)cc(OC)c1OC (stereo partly shown) [Example 7] |  | 94
3 | COc1cc(CCCOC(=O)[C@@H]2CCCCN2C(=O)C(F)(F)c2cc(OC)c(OC)c(OC)c2)cc(OC)c1OC [Example 9] | 109 | 99
4 | COc1cc(C(F)(F)C(=O)N2CCC[C@H]2C(=O)OCCCc2cccnc2)cc(OC)c1OC [Example 2] | 877 | 
5 | COc1cc(C(F)(F)C(=O)N2CCC[C@H]2C(=O)OC(CCCc2ccccc2)CCCc2cccnc2)cc(OC)c1OC (stereo partly shown) [Example 3] | 104 | 97
6 | COc1cc(C(F)(F)C(=O)N2CCCC[C@H]2C(=O)OC(CCCc2ccccc2)CCCc2cccnc2)cc(OC)c1OC (stereo partly shown) [Example 4] |  | 98
7 | COc1cc(CCCOC(=O)[C@@H]2CCCN2C(=O)C(F)(F)c2cc(OC)c(OC)c(OC)c2)cc(OC)c1OC [Example 8] |  | 38
8 | COc1cc(C(F)(F)C(=O)N2CCC[C@H]2C(=O)OC(C)(C)CCc2ccccc2)cc(OC)c1OC [Example 5] |  | 70
9 | COc1cc(C(F)(F)C(=O)N2CCC[C@H]2C(=O)OC(CCc2ccccc2)c2ccccc2)cc(OC)c1OC (stereo partly shown) [Example 6] | 83 | 100
